# Structures can show the parent of a compound that is named as a salt.
# Conditions: mouse, in vivo, 20 mg/kg
smiles,measurement,value
CN(C)C(=O)COC(=O)Cc1ccc(OC(=O)c2ccc(NC(=N)N)cc2)cc1 [camostat mesylate],level in the plasma after oral delivery,no detectable level

# Reference: paper PMC12267714 (Nature Communications, 2025)
